Experimental data as given in patent publication US20020137929A1, “1 - (3-heterocyclylphenyl) isothiourea, -isourea, -guanidine and -amidine herbicidal agents” (Intellectual Property Department, BASF Aktiengesellschaft, priority 1998, published 2002).

Key:
[1] = test system: ORYSAT (Rice, Tebonnet); experiment: Rice tolerance to post-transplant applications, flooded paddy conditions (Table III); format: in vivo, Oryza sativa, (L.) Tebonnet; details: in vivo
Protocol: Results of herbicide evaluation are expressed on a rating scale (0-9). The scale is based upon a visual observation of plant stand, vigor, malformation, size, chlorosis and overall plant appearance as compared with a control.
The tolerance of transplanted rice to post-transplanted herbicide applications is determined as follows: two ten-day-old rice seedlings (cv. Tebonnet) are transplanted into silt loam soil in 32 oz. plastic containers with a diameter of 10.5 cm and no drainage holes. After transplanting, the containers are flooded and the water level is maintained at 1.5 to 3 cm above the soil surface. Three days after transplanting, the flooded soil surface of the containers is treated with the selected aqueous/acetone 50/50 v/v mixture containing the test compounds to provide the equivalent of about 0.0313 to 0.500 kg/ha of active ingredient. The treated containers are placed on greenhouse benches, watered such that the water level is maintained as stated above, and cared for in accordance with conventional greenhouse procedures. Three to four weeks after treatment, the test is terminated and each container is examined and herbicidal effect rated according to the rating system provided in Example 37. The compounds evaluated are reported by compound number given in Example 37.
Plant species employed in this example are reported by header abbreviation, common name and scientific name.

[2] = test system: CHEAL (Lambsquarters, Common); experiment: Preemergence herbicidal evaluation; format: in vivo, Chenopodium album; details: rated 4-5 weeks after treatment, rating scale 0-9
Summary of the method: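 Rating at 4–5 wk post-spray on a 0–9 visual scale vs control. Application: aqueous acetone, ~0.0156–0.500 kg/ha, to soil surface after seeding, preemergence.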

[3] = test system: TRZAWR (Wheat, Winter, cv Riband); experiment: Postemergence herbicidal evaluation; format: in vivo, Triticum aestivum; details: postemergence
Summary of the method: (§1)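 Visual 0–9 rating versus control (stand, vigor, malformation, size, chlorosis, overall appearance), taken four to five weeks post-spray. Two-week-old seedlings received roughly 0.0156–0.500 kg/ha active in acetone/water (50/50) with 0.5% TWEEN 20 via nozzle at 40 psi.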

[4] = test system: GALAP (Galium); experiment: Postemergence herbicidal evaluation; format: in vivo, Galium aparine; details: postemergence
Summary of the method: as §1

[5] = test system: AMBEL (Ragweed, Common); experiment: Postemergence herbicidal evaluation; format: in vivo, Ambrosia artemisifolia; details: postemergence
Summary of the method: as §1

SMILES | herbicidal effect rating, ORYSAT (rice tolerance) [1] | Preemergence herbicidal rating CHEAL ([2]; rate 0.0313 kg/ha) | Preemergence herbicidal rating CHEAL ([2]; rate 0.0625 kg/ha) | Preemergence herbicidal rating CHEAL ([2]; rate 0.1250 kg/ha) | Preemergence herbicidal rating CHEAL ([2]; rate 0.2500 kg/ha) | herbicidal rating TRZAWR ([3]; rate 0.0156 kg/ha) | herbicidal rating TRZAWR ([3]; rate 0.0313 kg/ha) | herbicidal rating TRZAWR ([3]; rate 0.0625 kg/ha) | herbicidal rating GALAP ([4]; rate 0.0156 kg/ha) | herbicidal rating GALAP ([4]; rate 0.0313 kg/ha) | herbicidal rating GALAP ([4]; rate 0.0625 kg/ha) | herbicidal rating AMBEL ([5]; rate 0.0156 kg/ha) | herbicidal rating AMBEL ([5]; rate 0.0313 kg/ha) | herbicidal rating AMBEL ([5]; rate 0.0625 kg/ha)
Cn1c(C(F)(F)F)cc(=O)n(-c2cc(N=C3SCC(=O)N3Cc3ccc(Br)cc3)c(Cl)cc2F)c1=O [Compound 148, 3-{5-{[3-(p-Bromobenzyl)-4-oxo-2-thiazolidinyl-idene]amino}-4-chloro-2-fluorophenyl}-1-methyl-6-(trifluoromethyl)-2,4(1H,3H)-pyrimidinedione] | 0.0 | 6.0 | 9.0 | 9.0 | 9.0 | 2.5 | 3.0 | 4.0 | 2.0 | 2.0 | 2.0 | 9.0 | 7.0 | 9.0
CSCCN1C(=O)CSC1=Nc1cc(-n2c(=O)cc(C(F)(F)F)n(C)c2=O)c(F)cc1Cl [Compound 157] | 0.0 | 1.0 | 0.0 | 9.0 | 9.0 | 2.5 | 3.5 | 4.0 | 0.0 | 0.0 | 2.0 | 2.0 | 2.0 | 5.0
COc1ccc(CN2C(=O)CSC2=Nc2cc(-n3c(=O)cc(C(F)(F)F)n(C)c3=O)c(F)cc2Cl)cc1OC [Compound 134, 3-{4-Chloro-5-{[3-(3,4-dimethoxybenzyl)-4-oxo-2-thiazolidinylidene]amino}-2-fluorophenyl}-1-methyl-6-(trifluoromethyl)-2,4(1H,3H)-pyrimidinedione] | 2.0 |  |  | 9.0 | 9.0 | 2.5 | 3.5 | 4.0 | 0.0 | 1.0 | 2.0 | 3.0 | 4.0 | 7.0
